Measurements: patent US20070129281A1, “Pharmaceutical compounds” (priority 2003, published 2007)
“Also recorded” adds a separate entry of the source.

Target: T1, PTP1B catalytic domain (residues 1-321) (Homo sapiens, UniProt P18031)
T1 construct: crystallisation of the catalytic domain of PTP1B (residues 1-321) were based on literature conditions; made in house; host or cells: E. coli BL21(DE3), vector pET19b
T1 sequence (P18031 1-321): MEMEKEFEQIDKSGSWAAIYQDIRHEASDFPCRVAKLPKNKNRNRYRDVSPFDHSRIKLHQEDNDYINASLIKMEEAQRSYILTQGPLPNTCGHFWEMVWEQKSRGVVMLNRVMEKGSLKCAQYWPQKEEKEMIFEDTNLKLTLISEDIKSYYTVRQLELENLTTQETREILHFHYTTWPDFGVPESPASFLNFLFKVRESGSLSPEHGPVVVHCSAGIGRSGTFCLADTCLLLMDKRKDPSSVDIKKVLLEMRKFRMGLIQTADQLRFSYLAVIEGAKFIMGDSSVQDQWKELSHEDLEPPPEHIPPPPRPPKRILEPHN
Assay: Crystal soaking of PTP1B crystals with X-ray structure determination (oxidation state of Cys215)
Settings: for State of the catalytic Cys215 / active site of PTP1B in the crystal after soaking (X-ray data): crystals soaked about 24 hours in mother liquor without DTT containing 100 mM compound
Protocol: For overnight soaking experiments crystals were transferred into a standard mother liquor containing 16% PEG 4000, 0.1 M HEPES (pH 7.5), 0.2 M magnesium acetate, 10 mM DTT and the compound of interest (See Table 3 below).
All data were collected at 100 K. Data sets of sulfenic- sulfinic- and sulfonic acid PTP1B derivatives were automatically collected on a Jupiter140 CCD detector mounted on a RU3HR rotating anode generator equipped with an ACTOR sample-changing robot (RigakuMSC, The Woodlands Tex., USA). They were processed and scaled using D*TREK^21 and converted to structure factors using programs from the CCP4 suite^22.
Oxidation of Cys215 to the sulfenyl-amide derivative was carried out by soaking crystals for approximately 24 hours in mother liquor without DTT, but containing 100 mM 2-phenyl-isoxazolidine-3,5-dione. Data were collected at station 14.1 (SRS, Daresbury) and processed and scaled using MOSFLM/SCALA^22.
Reversibility of the sulfenyl-amide derivative was checked by first soaking two crystals in 100 mM 2-phenyl-isoxazolidine-3,5-dione for 24 hours.
All results were evaluated using the graphics programs QUANTA (Accelrys, San Diego Calif., USA) and Astexviewer™^23. Initial refinement was always carried out using the CCP4-based Astex automatic refinement scripts, followed by rounds of positional and B-factor refinement with REFMAC5^22 alternated with manual rebuilding steps using QUANTA.

O=C1CC(=O)N(c2ccccc2)O1 [2-phenyl-isoxazolidine-3,5-dione]
State of the catalytic Cys215 / active site of PTP1B in the crystal after soaking (X-ray data): Sulfenyl-amide formation was confirmed
State of the catalytic Cys215 / active site of PTP1B in the crystal after soaking (X-ray data) (listed as 2-Phenyl-isoxazolidine-3,5-dione): confirmed the formation of the sulfenyl-amide bond

N[C@@H](CCC(=O)N[C@@H](CS)C(=O)NCC(=O)O)C(=O)O [reduced glutathione, glutathione]
Active site conformation of sulfenyl-amide PTP1B crystal after back soaking (reversibility, X-ray data) (back soaking 24 hours in mother liquor containing 20 mM reduced glutathione, after a 100 mM 2-phenyl-isoxazolidine-3,5-dione soak): entire active site back in its native conformation; also recorded: confirmed the active site in its native conformation
